Targets include CTNNB1; GNAI3; MAP2K7; ETS2.
Common to all, as to settings: ASO

These results are taken from the OligoGym collection.

These antisense oligonucleotides have a phosphorothioate backbone; sugars and methylation of C are not fully specified.
Note: test concentration or dose not given here.

In the data set with CTNNB1, AAACTGTGTAGATGGGATCT came in with a remaining target (mRNA or protein) (fraction of control) of 0.57.
AAATGTGTTTCTACAATG: the remaining target (mRNA or protein) (fraction of control) with GNAI3 stood at 0.9.
In turn, AAGGTGTCTGGTCTCAAC yielded a remaining target (mRNA or protein) (fraction of control) in the data set with GNAI3 of 0.56.
On to AAGTTCCCTAATACAAAA, for which the remaining target (mRNA or protein) (fraction of control) with GNAI3 came to 0.85.
Regarding AATCAGCTTGAGTAGCCATT, the remaining target (mRNA or protein) (fraction of control) with CTNNB1 came out at 0.31.
For the sequence AATGATTGAAGTTTCTGT, in the data set with GNAI3, the remaining target (mRNA or protein) (fraction of control) is 0.73.
As to AATGTAGTTAGACTGGGA, the remaining target (mRNA or protein) (fraction of control) with GNAI3 came out at 0.46.
In turn, AATTCCAATGTCTGACTT registered a remaining target (mRNA or protein) (fraction of control) with GNAI3 of 0.51.
The same measure, in the same setting: the value for ACAATGCCTGTGGTCTTC was ≥ 1; that for ACACTGTAGTAACTTTCA was 0.6.
ACCAAGCATTTTCACCAGGG: the remaining target (mRNA or protein) (fraction of control) with CTNNB1 stood at 0.4.
Consider ACCAGGGTGGTGGCCACCCA, for which the remaining target (mRNA or protein) (fraction of control) with CTNNB1 was 0.48.
Regarding ACTCAGGTCTTCGCCATGAC, the remaining target (mRNA or protein) (fraction of control) with MAP2K7 amounted to 0.76.
ACTCCACACTGTAGTAAC: the remaining target (mRNA or protein) (fraction of control) in the data set with GNAI3 stood at 0.45.
The sequence ACTGTCCTGTTGCCAGCTCC had a remaining target (mRNA or protein) (fraction of control) in the data set with MAP2K7 of 0.58.
AGAAAATCCCTGTTCCCACT: in the data set with CTNNB1, the remaining target (mRNA or protein) (fraction of control) came out at 0.32.
In the data set with MAP2K7, AGACAAACACCTCGTGCCGA displayed a remaining target (mRNA or protein) (fraction of control) of 0.88.
In turn, AGAGAATGATTGAAGTTT registered a remaining target (mRNA or protein) (fraction of control) with GNAI3 of 0.99.
In the data set with MAP2K7, AGAGCTTGATCTGGCCCCGC came in with a remaining target (mRNA or protein) (fraction of control) of 0.84.
In the case of AGCAGACACCATCTGAGGAG, the remaining target (mRNA or protein) (fraction of control) with CTNNB1 came out at 0.3.
AGCCAGAACAAGGTCATA came in with a remaining target (mRNA or protein) (fraction of control) with GNAI3 of 0.88.
With AGCCCACCAGCTAAACGCAC, the remaining target (mRNA or protein) (fraction of control) with CTNNB1 amounted to 0.4.
Consider AGGACGCCGCCATCTTCCCC, for which the remaining target (mRNA or protein) (fraction of control) with MAP2K7 is 0.7.
On the same count and under the same terms, the result for AGGCGGCACAGCCGGCGCTC reads 0.95.
The sequence AGGTCATAATCACTGAGG came in with a remaining target (mRNA or protein) (fraction of control) with GNAI3 of 0.75.
Take AGTCCGCGGTGACTCAGGTC: the remaining target (mRNA or protein) (fraction of control) in the data set with MAP2K7 worked out at 0.87.
Regarding ATCTCCTTGGTATCTTTT, the remaining target (mRNA or protein) (fraction of control) in the data set with GNAI3 is 0.33.
Still for that read-out and setting: the value for ATCTTGCTTCGCTCCACT was 0.63; that for ATGCAGCACCTCAACTTC was 0.4.
Sequence ATGGCGATGAAGACGTCCGT registered a remaining target (mRNA or protein) (fraction of control) in the data set with MAP2K7 of 0.84.
Take ATTGTTTACATTCATCCT: the remaining target (mRNA or protein) (fraction of control) with GNAI3 is ≥ 1.
The same measure, in the same setting: the value for CAATAAAGTCCACATTCC was ≥ 1; that for CAATCTTTAGCCGTCCCA was 0.49.
The sequence CACCTCCAGCGTCTCGTAGC registered a remaining target (mRNA or protein) (fraction of control) with MAP2K7 of 0.45.
On the same count and under the same terms, the result for CAGGGAGGACGCCGCCATCT reads ≥ 1; that for CATCTTCCCCGCCGCCACCG, 0.68.
For CATCTTGCTGAGTTGGAA, the remaining target (mRNA or protein) (fraction of control) with GNAI3 is 0.34.
Sequence CATGAGACAGCAAAAGGT yielded a remaining target (mRNA or protein) (fraction of control) with GNAI3 of 0.92.
The same measure, in the same setting: the result for CCACCATCTCGCCATAAC reads 0.77.
For CCAGAGACGATCAGGGAG, the remaining target (mRNA or protein) (fraction of control) with ETS2 is ≥ 1.
For CCATGCTTCTCAATAAAG, the remaining target (mRNA or protein) (fraction of control) with GNAI3 amounted to 0.58.
In the case of CCCAGGCTCCATACGTCGGC, the remaining target (mRNA or protein) (fraction of control) with MAP2K7 stood at 0.74.
For the sequence CCCCGAGAAGCCCATGTGTC, in the data set with MAP2K7, the remaining target (mRNA or protein) (fraction of control) worked out at 0.69.
In the data set with ETS2, CCGACGTCTTGTGGATGA displayed a remaining target (mRNA or protein) (fraction of control) of 0.45.
With CCGCCATCTTCCCCGCCGCC, in the data set with MAP2K7, the remaining target (mRNA or protein) (fraction of control) worked out at 0.9.
In the data set with MAP2K7, CGCCGCCATCTTCCCCGCCG yielded a remaining target (mRNA or protein) (fraction of control) of 0.99.
The sequence CGCGCACCGCCCGGCCGCCC came in with a remaining target (mRNA or protein) (fraction of control) in the data set with MAP2K7 of 0.46.
With CGGCGCTTGGTCGGGACG, in the data set with ETS2, the remaining target (mRNA or protein) (fraction of control) was ≥ 1.
CGTCAGTCCGGCAGACAAAC: the remaining target (mRNA or protein) (fraction of control) with MAP2K7 stood at 0.91.
Regarding CGTCCCACGGACTGCCAG, in the data set with ETS2, the remaining target (mRNA or protein) (fraction of control) is ≥ 1.
Take CTCAACACTCCACACTGT: the remaining target (mRNA or protein) (fraction of control) in the data set with GNAI3 is 0.9.
As to CTGAGGATGGCGAGCGGCTG, in the data set with MAP2K7, the remaining target (mRNA or protein) (fraction of control) was ≥ 1.
In the case of CTGCCTTTCCTGGGTCCT, the remaining target (mRNA or protein) (fraction of control) with ETS2 is ≥ 1.
As to CTGGCTCAAGGAACGCCGTT, the remaining target (mRNA or protein) (fraction of control) with MAP2K7 is ≥ 1.
The sequence CTTAAAAGCACTGTGAGT showed a remaining target (mRNA or protein) (fraction of control) in the data set with ETS2 of 0.63.
CTTCTCAATAAAGTCCAC: the remaining target (mRNA or protein) (fraction of control) with GNAI3 is 0.65.
For the sequence CTTTAGTAAGGCAGTCTTTG, the remaining target (mRNA or protein) (fraction of control) with MAP2K7 was 0.7.
On to GAAGCCACTGGCATACCT, for which, in the data set with ETS2, the remaining target (mRNA or protein) (fraction of control) is 0.64.
